Experimental data as given in ChEMBL document CHEMBL1156829 (Proc Natl Acad Sci U S A, 2008).

Tests used:
Plasmodium falciparum [1] = experiment: NOVARTIS: Inhibition of Plasmodium falciparum 3D7 (drug-susceptible) proliferation in erythrocyte-based infection assay; format: functional, organism-based; details: Plasmodium falciparum, 3D7
Plasmodium falciparum [2] = experiment: NOVARTIS: Inhibition of Plasmodium falciparum W2 (drug-resistant) proliferation in erythrocyte-based infection assay; format: functional, organism-based; details: Plasmodium falciparum, W2; read-out: EC50
[3] = NOVARTIS: Cytotoxicity against human hepatocellular carcinoma cell line (Huh7); format: toxicity, cell-based, Huh-7; details: Huh7 cells (hepatocellular carcinoma cell line)

SMILES	EC50 (Plasmodium falciparum [1]) [nM]	EC50 (Plasmodium falciparum [2]) [nM]	CC50 [3] [nM]
COC(=O)C1=C(O)/C(=C\c2cc(C)n(-c3ccccc3F)c2C)N=C1C	> 974	> 1250	> 10000
OP1(O)=NP(O)(O)=NP(O)(O)=NP(O)(O)=N1	811	> 1250	> 10000
CC(C)Sc1nc2c(c(=O)n1Cc1ccco1)C1(CCCCC1)Cc1ccccc1-2	9560	> 12500	> 100000
O=C(CSc1nc2ccccc2[nH]1)Nc1ccc(Cl)cc1Cl	> 790	> 1250	> 10000
CCOC(=O)C1=C(C)N=c2sc(=Cc3ccccc3OCc3ccccc3)c(=O)n2C1c1ccccc1OC(C)C (configuration not stated)	9730	> 12500	> 100000
Cc1ccn(C(=O)NCCNC(=O)Nc2ccc(Cc3ccc(NC(=O)NCCNC(=O)n4ccc(C)n4)cc3)cc2)n1	> 953	> 1250	> 10000
COc1cccc(CN2CCN(C(=O)c3c(C)noc3C)[C@@H](C)C2)c1	> 936	> 1250	> 10000
CON(C)C(=O)c1cccc2ccccc12	856	> 1250	> 10000
Cc1ccc(N=C2C(=O)Nc3ccc(C)c(Br)c32)c(O)c1	> 963	> 1250	> 10000
O=C(/C=C/c1ccccc1Cl)Nc1ccc(Oc2ccc3ccccc3c2Cl)c(Cl)c1	> 958	> 1250	> 10000
O=C(O)c1c[nH]c2cc(N3CCCCCC3)c(F)cc2c1=O	> 9800	> 12500	> 100000
CS(=O)(=O)Nc1cccc(-c2cnc(N)c(-c3ccc(C(=O)N4CCOCC4)cc3)n2)c1	> 976	> 1250	> 10000
CCN1CCN(c2cc(C)c3cc(NC(=O)/C=C/c4ccccc4Cl)ccc3n2)CC1	966	> 1250	> 10000
CCn1c2cc(C)sc2c2cnn(CC(=O)Nc3c(C)nn(C)c3C)c(=O)c21	> 749	> 1250	> 10000
COc1ccccc1N1CCN(c2c3c(nc4nncn24)CCC3)CC1	> 736	> 1250	> 10000
CCCCNC(=O)c1ccc2c(c1)N=C(c1cccc(OCC)c1)N(CCCN1CCCC1=O)C2	> 752	> 1250	> 10000
O=C(CSc1nc2ccccc2c(=O)n1-c1ccc(C(=O)N2CCOCC2)cc1)c1ccccc1	> 772	> 1250	> 10000
CN(C)C(=O)CN(C)C(=O)c1cnc2scc(C(C)(C)C)n2c1=O	> 820	> 1250	> 10000
COCCN(CC(=O)Nc1cc(C(C)(C)C)nn1-c1ccc(C)cc1)C(=O)COCc1ccccc1	> 818	> 1250	> 10000
CN(C)CCCNc1ncc(C(=O)NCc2ccccc2)c(NCCc2ccccc2)n1	817	> 1250	> 10000
O=C1C=CC(=O)N1c1ccc(Sc2ccc(N3C(=O)C=CC3=O)cc2)cc1	> 814	> 1250	> 10000
COc1ccc(OCCOCCN2CCN(C)CC2)cc1	> 8080	> 12500	> 100000
O=C(COc1ccccc1Cl)OCc1cc(=O)n2nc(C3CC3)sc2n1	> 803	> 1250	> 10000

SMILES	EC50 (Plasmodium falciparum [1]) [nM]	EC50 (Plasmodium falciparum [2]) [nM]	CC50 [3] [nM]
COc1ccc(NC(=O)COc2ccccc2C(C)C)c(OC)c1	7950	> 12500	> 100000
COc1ccc(Cn2c(SCC(=O)Nc3ccccc3OC)nc3ccsc3c2=O)cc1	> 778	> 1250	> 10000
CC(C)CNc1nc(NCCC2CCCN2C)ncc1C(=O)NCc1ccccc1 (configuration not stated)	775	> 1250	> 10000
CC(=O)OC(OC(C)=O)C12C=CC(O1)C1C(=O)N(c3cccc(C)c3)C(=O)C12 (configuration not stated)	> 794	> 1250	> 10000
O=C(OCCOc1ccc([N+](=O)[O-])cc1)c1ccc(Br)o1	782	> 1250	> 10000
COC(=O)c1[nH]c2ccc(Cl)cc2c1NC(=O)C(C)N1CCN(C2CCCCC2)CC1 (configuration not stated)	7740	> 12500	> 100000
CC(C)CNC(=O)c1cnc(NCCCN2CCCC2)nc1NC1CCCC1	774	> 1250	> 10000
COc1ccc(/C=C(\NC(=O)c2ccccc2Br)C(=O)N2CC3CC(C2)c2cccc(=O)n2C3)cc1OC (configuration not stated)	> 764	> 1250	> 10000
NC(=O)C1CCN(S(=O)(=O)c2cc(Br)c(Br)s2)CC1	> 751	> 1250	> 10000
O=C(Nc1ccc(-c2nnc(-c3ccccc3)o2)cc1)c1ccc(Br)cc1	750	> 1250	> 10000
OCC1CCCN1c1nccnc1-c1ccccc1Oc1ccccc1 (configuration not stated)	> 868	> 1250	> 10000
CCN(CC)Cc1cc(Nc2nc3ccccc3[nH]2)cc(CN(CC)CC)c1O	864	> 1250	> 10000
COc1ccc(Cn2nnnc2CN2CCc3ccccc3C2)cc1	> 853	> 1250	> 10000
O=C(O)CC12CC3CC(C1)CC(c1ccc([N+](=O)[O-])cc1)(C3)C2	> 883	> 1250	> 10000
COc1ccc(/C=C/C(=O)Nc2ccc3nc(N4CCN(C)CC4)cc(C)c3c2)cc1OC	872	> 1250	> 10000
Cc1c(NC(=S)N2CCOCC2)c(=O)n(-c2ccccc2)n1C	> 919	> 1250	> 10000
O=C(NCc1ccccc1)c1cnc(NCCCN2CCCC2)nc1NCC1CCCCC1	733	> 1250	> 10000
O=C(CSc1nnc2c(n1)[nH]c1ccccc12)Nc1ccc([N+](=O)[O-])cc1	9110	> 12500	> 100000
COc1cc(O)c2c(=O)cc(CCOC(=O)Nc3ccccc3)[nH]c2c1	> 905	> 1250	> 10000
Cc1cc(C)n(-c2ccc(NC(=O)C3CCN(Cc4cc(C)c(C)o4)CC3)cc2)n1	888	> 1250	> 10000
Nc1ccc(-c2cc(N)n(-c3ccc(Oc4ccccc4)c(S(=O)(=O)O)c3)n2)cc1	> 921	> 1250	> 10000
CC(C)CNC(=O)c1cnc(NCCC2CCCN2C)nc1NCC1CCCCC1 (configuration not stated)	920	> 1250	> 10000
O=C(COC(=O)c1ccc2c(c1)C(=O)N(c1ccc3ccccc3c1)C2=O)c1ccc(Br)cc1	> 919	> 1250	> 10000

SMILES	EC50 (Plasmodium falciparum [1]) [nM]	EC50 (Plasmodium falciparum [2]) [nM]	CC50 [3] [nM]
CCOC(=O)c1oc2cc(O)c(CC)cc2c(=O)c1-c1ccc2c(c1)OCO2	> 834	> 1250	> 10000
CN(C)c1nnc(/C(C#N)=C/c2cc(C(=O)c3cccc(Cl)c3)cn2C)o1	936	> 1250	> 10000
c1cn2c(-c3ccc(N4CCOCC4)cc3)cnc2c(NCc2ccc3c(c2)OCO3)n1	> 927	> 1250	> 10000
CN(C)CCCNC(=O)c1ccc(-c2cncc(-c3cccc(O)c3)n2)cc1	923	> 1250	> 10000
O=[N+]([O-])c1cc(NC2OC(CO)C(OC3OC(CO)C(O)C(O)C3O)C(O)C2O)ccc1Cl (configuration not stated)	> 848	> 1250	> 10000
Cc1ccccc1Oc1ccc(S(=O)(=O)NC(CC(C)C)C(=O)O)cc1 (configuration not stated)	> 846	> 1250	> 10000
Cc1cccc(N(C)c2ccnc3c(-c4cccc(C(N)=O)c4)cnn23)c1	> 843	> 1250	> 10000
O=C(NCc1ccccc1)c1cnc(NCCN2CCCCC2)nc1NCCc1ccccc1	950	> 1250	> 10000
CC1CCCCN1CCCNc1ncc(C(=O)NCc2ccccc2)c(NC2CCCC2)n1 (configuration not stated)	943	> 1250	> 10000
CC1(C)CC(=O)c2cc(-c3ccc(Br)cc3)n(-c3ccccc3F)c2C1	> 972	> 1250	> 10000
CCN1CC=C2C(C#N)=C(N)C(C#N)(C#N)C(c3ccc(C)s3)C2C1 (configuration not stated)	> 877	> 1250	> 10000
CC(=O)C1=C(O)C(=O)N(c2ccc(Br)cn2)C1c1ccccc1[N+](=O)[O-] (configuration not stated)	> 9610	> 12500	> 100000
CCN(CC)c1ccc2c(c1)OC(N)=C(C#N)C2c1ccsc1 (configuration not stated)	> 9540	> 12500	> 100000
N#Cc1cn(-c2ccc(Cl)cc2)c(=O)n(Cc2c(Cl)cccc2Cl)c1=O	816	> 1250	> 10000
Cc1ccc2c(nc3sc(=Cc4ccc(-c5ccccc5F)o4)c(=O)n32)c1C	921	> 1250	> 10000
CC1(C)CC(=O)C(=CNc2nc3c(s2)CCc2c-3cnn2-c2ccccc2)C(=O)C1	> 942	> 1250	> 10000
COc1ccc(CNC(=O)CCc2cn(Cc3cc(C)ccc3C)c3ccccc23)cc1OC	> 842	> 1250	> 10000
O=C(Cn1c2ccccc2c(=O)c2cc([N+](=O)[O-])ccc21)Nc1cccc(Cl)c1	> 880	> 1250	> 10000
CC1CCCCN1CCCNc1ncc(C(=O)NCCCN2CCCC2=O)c(NCC2CCCCC2)n1 (configuration not stated)	850	> 1250	> 10000
CC1Cc2ccccc2N1C(=O)Cn1c(=O)oc2ccccc21 (configuration not stated)	> 907	> 1250	> 10000
CCCCCc1ccc(-c2cn3nc(CCCCC)sc3n2)cc1	> 921	> 1250	> 10000
Cc1ccc(S(=O)(=O)Nc2ccc(C(=O)NCCC(C)C)cc2)cc1	> 837	> 1250	> 10000
Cc1cccc2nc(N)nc(N)c12	753	> 1250	> 10000
